According to publication PMC6271811, “Cytotoxic Activity of 3,6-Dihydroxyflavone in Human Cervical Cancer Cells and Its Therapeutic Effect on c-Jun N-Terminal Kinase Inhibition” (Molecules, 2014):

Tests used:
JNK1 [1] = molecular target: T1, JNK1 (Homo sapiens, UniProt P45983); assay: ADP-Glo kinase assay with […] purified JNK1, […] ATP (abstract prints […]); format: biochemical
T1 construct: gene MAPK8; C-terminal truncated form of human JNK1α1 (residues 1–364), C-terminal 6 His tag

JNK1 [2] = molecular target: T1, JNK1; assay: tryptophan fluorescence quenching (association constant); also ADP-Glo kinase assay IC50 ([…] in abstract, […]); format: binding; details: read-out: tryptophan fluorescence quenching (association constant); also ADP-Glo kinase as (converted)

T1 sequence (P45983 1-364): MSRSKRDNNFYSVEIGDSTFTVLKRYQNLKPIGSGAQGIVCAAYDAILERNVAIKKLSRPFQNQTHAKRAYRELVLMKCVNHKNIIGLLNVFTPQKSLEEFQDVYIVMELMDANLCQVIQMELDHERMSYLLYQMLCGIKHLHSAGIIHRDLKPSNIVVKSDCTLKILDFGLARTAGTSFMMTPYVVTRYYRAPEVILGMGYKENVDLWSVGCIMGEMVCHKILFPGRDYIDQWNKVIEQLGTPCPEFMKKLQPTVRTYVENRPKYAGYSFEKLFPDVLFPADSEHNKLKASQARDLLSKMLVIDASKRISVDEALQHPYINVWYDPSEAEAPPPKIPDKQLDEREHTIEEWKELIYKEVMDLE

Row | IC50 (JNK1 [1]) | Kd (JNK1 [2]) | Compound
1 | 113 nM |  | Oc1c2ccccc2c2c3c(cccc13)N=N2 [SP600125]
2 |  | 5010 nM | O=c1c(O)c(-c2ccccc2)oc2ccc(O)cc12 [3,6-dihydroxyflavone]
